Measured values published in patent US20230374505A1, “Human XIST Antisense Oligonucleotides for X Reactivation Therapy” (The General Hospital Corporation, priority 2020, published 2023).

Tests used:
[1] = test system: human CDKL5 patient fibroblast line; assay: Toxicity of nanaomycin to CDKL5 patient fibroblasts; type: cell-based; conditions: added every 2 days, 5 days treatment; data not shown
Procedure: Experiments were also conducted to test Xi reactivation in human CDKL5 patient's fibroblast with XIST ASO-6B and DNMT3 inhibitor, Nanaomycin, co-treatment. A human CDKL5 patient fibroblast line carrying mutation on the Xa was treated with an ASO to XIST and a DNMT3i, nanaomycin A. After 5 days of treatment with 20 nM XIST ASO-6B (added once at day 0; lipofectamine transfection) and 25 nM-1 uM nanaomycin A (added every 2 days; days 0, 2, and 4), cells were harvested for qPCR analysis (FIG. 10A). Nanaomycin is very toxic, and the cells were dead in concentration above 250 nM (data not shown).

cell culture = assay: Tolerable Aza concentration in cell culture; type: cell-based
[2] = test system: Xi reactivation in the brain; assay: Aza/decitabine three pulse treatment, Xi reactivation in the brain; type: in vivo, mouse; conditions: three short pulses delivered systemically; after two weeks
Source text: ASO drugs are generally more specific and have the advantage that information on pharmacokinetics and toxicity studies for chemically similar ASOs is transferable and cumulative. Thus, ASOs may have a more favorable path to regulatory approval. Small molecules generally have lower selectivity and may face steeper hurdles in the approval process within the US Food and Drug Administration (FDA). By mixing modalities, our approach may potentially anticipate a more streamlined approach to FDA approval. […] Unlike LNA-based ASOs which have tissue half-lives of several weeks (Wahlestedt C et al. Potent and nontoxic antisense oligonucleotides containing locked nucleic acids. Proc Natl Acad Sci USA. 2000; 97:5633-5638), Aza is known to have a very short half-life (t1/2<1h in plasma) (Welch J S et al. TP53 and decitabine in acute myeloid leukemia and myelodysplastic syndromes. N Engl J Med. 2016; 375:2023-2036). However, once DNA is demethylated, the state may be stable (Kordasiewicz H B et al. Sustained therapeutic reversal of Huntington's disease by transient repression of huntingtin synthesis. Neuron. 2012; 74:1031-1044). Future work will determine the duration of the effect and whether periodic boosters of either Aza or ASO might be necessary to maintain the reactivation.
Decitabine was administered to the XIST2lox, Nestin-Cre F2 generation, by IP injection at 5 weeks old. […]

[3] = in plasma; cited from earlier work
XIST = XIST expression in CDKL5 patient fibroblasts after XIST ASO with or without DNMTi, qPCR; type: cell-based, human
Procedure: (§1) FIGS. 8A-8C. Xi reactivation in human CDKL5 patient's fibroblast with XIST ASO+/−DNMTi (Decitabine, Azacitidine, RG-108). (A) A human CDKL5 patient fibroblast line carrying mutation on the Xa was treated with ASOs to XIST and three DNMTi. On day 0, cells were treated with 20 nM of XIST ASO-6B, and 1 uM of each DNMTi every 2 days. […] XIST expression was relative to untreated levels, normalized to RPL13a. […] CDKL5 wt reactivation was normalized to CDKL5mut expression from the Xa chromosome.
FIGS. 11A-11B. Triplicate experiment showing Xi reactivation in human CDKL5 patient's fibroblast with XIST ASO+/−DNMTi (Decitabine, Azacitidine, RG-108). […] CDKL5 wt reactivation was normalized to CDKL5mut expression from the Xa chromosome. Data shown are the average of three experiments; error bars are standard deviation.
RNA was isolated by Trizol (Life Technologies) extraction (tissues were snap frozen in liquid nitrogen and ground with pestle and mortar or put in Trizol and homogenized using a Qiagen TissueLyser), treated with TurboDNAse for 30 min at 37° C. […] The relative efficiency of the reactivations was calculated by comparing to GAPDH or TBP RNA as the internal control in mouse experiment. The relative efficiency of the reactivations was calculated by comparing to RPL13a as the internal control in human cells. […]

CDKL5 wt allele (Xi) = assay: CDKL5 wt allele reactivation in human CDKL5 patient fibroblasts, allele-specific qPCR; type: cell-based
Procedure: FIGS. 6A-6B. XIST ASO (ASO-6B) and DNMTi co-treatment in CDKL5 patient fibroblast. (A) A schematic of treatment of a human CDKL5 patient fibroblast line carrying mutation on the Xa. After 3 days of treatment with 100 nM XIST ASOs (lipofectamine transfection) and 0.5 uM Aza (added every 2 days), harvested cells underwent qPCR analysis. […] CDKL5 wt reactivation was normalized to CDKL5mut expression from the Xa chromosome, normalized to RPL13a.
as §1, with “days. On day 7, cells were harvested for qPCR analysis.” for “days.”
FIGS. 9A-9C. Xi reactivation in human CDKL5 patient's fibroblast with XIST ASO-6B and DNMT inhibitor (SGI-1027) co-treatment. (A) A human CDKL5 patient fibroblast line carrying mutation on the Xa was treated with an ASO to XIST and an DNMTi. […]

Molecule: CC1OC(CC(=O)O)CC2=C1C(=O)c1c(O)cccc1C2=O (centres unmarked) [Nanaomycin, nanaomycin A]
- concentration above which the cells were dead [1]: above 250 nM

Molecule: Nc1ncn([C@H]2C[C@H](O)[C@@H](CO)O2)c(=O)n1 [Aza, 5-aza-2′-deoxycytidine]
- tolerable concentration in cell culture (cell culture): 0.5 µM
- Xi reactivation in the brain [2]: sufficient to induce Xi reactivation
- t1/2 [3]: < 1 h

Molecule: ASO 6B: XIST ASO AGAAGTCTGGCACATCTGTG, SEQ ID NO:11 (LNA-flanked DNA gapmer, wing lengths and linkages not given here, further chemistry not given here)
- XIST expression (XIST; 20 nM ASO-6B with and without 1 uM DNMTi, 7 days (FIG. 8B)): decreased
- XIST expression (XIST; 20 nM ASO-6B with or without DNMTi, 4 days (FIG. 11A)): decreased
- CDKL5 reactivation (CDKL5 wt allele (Xi); 20 nM ASO 6B at day 0, 1 uM Decitabine, 0.5 uM Azacitidine or 1 uM RG-108 at days 0 and 2, harvested Day 4, average of three experiments (FIG. 11B)): 0.13%
- CDKL5 reactivation (CDKL5 wt allele (Xi); 20 nM ASO-6B at day 0, 1 uM DNMTi every 2 days, harvested day 7 (FIG. 8C)): 0.7%
